Legend:
[1] = competitive slurry in ethanol/water at 25, 30, 35 and 40° C.; enantiotropically related forms
Protocol: Competitive slurry experiments of Forms A and B in ethanol/water at 25° C., 30° C., 35° C. and 40° C. were used to establish the transition temperature of the enantiotropic forms.

[2] = Protocol: The Form B crystals were added to the SLS and PVP to form a slurry. […] FIG. 9 depicts complimentary in situ process analytical data from Raman spectroscopy (on solute concentration and solid phase composition) and Focused Beam Reflectance Measurement (FBRM characterizing number and dimension of the dispersed particles).
[3] = Form A: temperature range where Form B is stable; Form B: process solvent above 50° C., few hours, no Form A seeds

Row | SMILES | temperature at which the form is the more stable form [1] [°C] | relative solubility of the forms (Raman solute signal) ([2]; 80° C., slurry in aqueous SLS and PVP) | form conversion during API process and DP processing timeframes [3] | time for conversion of most Form B crystals to Form A crystals ([2]; 80° C., slurry in aqueous SLS and PVP, after introduction of Form A crystal seeds) [h] | Form A detected before seeding ([2]; Form B slurry in aqueous SLS and PVP raised to 80° C., before Form A seeds)
1 | CC(C)(F)C[C@H](N[C@@H](c1ccc(-c2ccc([C@@H](O)C(F)F)cc2)cc1)C(F)(F)F)C(=O)NC1(C#N)CC1 [Form A] | ≥ 40 | lower solubility | does not convert to Form B | – | –
2 | CC(C)(F)C[C@H](N[C@@H](c1ccc(-c2ccc([C@@H](O)C(F)F)cc2)cc1)C(F)(F)F)C(=O)NC1(C#N)CC1 [Form B] | ≤ 30 | – | converts to Form A | ≤ 2 | no Form A detected
